According to US20120035247A1, “RNA Interference Mediated Inhibition of Signal Transducer and Activator of Transcription 6 (STAT6) Gene Expression Using Short Interfering Nucleic Acid (siNA)” (Merck Sharp & Dohme Corp., priority 2009, published 2012):
[invAb] = inverted abasic unit; m = 2'-O-methyl; r = 2'-OH (RNA); f = 2'-fluoro

How the values were obtained:
STAT6 mRNA [1] = assay: STAT6 siNA screen and dose response in human A549 cells, STAT6 mRNA by quantitative RT-PCR (Taqman); type: cell-based; settings: for % KD STAT6 mRNA 10 nM / IC50: Table 4, human A549 cells; for % KD STAT6 mRNA 10 nM / IC50 / % KD STAT6: mean ± S.D.; for % KD STAT6 10 nM: Table 5, A549 cells, three experiments, mean ± standard deviation; for % KD STAT6: human A549 cells, 10 nM siNA, 24 hrs, normalized to GAPDH and non-targeting control, n = 3
Outline: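 A549 cells were transfected with siNA–RNAiMax complexes at a final 10 nM siNA and incubated 24 h without a medium change. STAT6 mRNA was measured by TaqMan qRT-PCR on cell lysates. Knock-down was calculated by the comparative Ct (ΔΔCt) method against the non-targeting control siNA, with relative expression taken as 2^−ΔΔCt.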

STAT6 mRNA [2] = assay: STAT6 siNA screen in mouse NIH 3T3 cells, STAT6 mRNA by quantitative RT-PCR (Taqman); type: cell-based; settings: mouse NIH3T3 cells, 10 nM siNA, 24 hrs, normalized to GAPDH and non-targeting control, n = 2
Outline: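 NIH 3T3 cells, 5000/well, transfected after 24 h with siNA (10 nM final) via RNAiMax and harvested 24 h later. STAT6 mRNA quantified by TaqMan RT-qPCR with GAPDH; knock-down by comparative Ct (2^−ΔΔCt) against non-targeting control siNA.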

Row | Substance | % KD STAT6 mRNA 10 nM (STAT6 mRNA [1]) | IC50 (STAT6 mRNA [1]) | % KD STAT6 10 nM (STAT6 mRNA [1]) | % KD STAT6 (STAT6 mRNA [1]) | % KD STAT6 (STAT6 mRNA [2])
1 | 29990-DC: STAT6 siNA duplex; sense SEQ ID NO: 44, antisense SEQ ID NO: 45; target GUGAAAGCCUGGUGGACAU, site 954 (sense GUGAAAGCCUGGUGGACAUTT; antisense AUGUCCACCAGGCUUUCACUU; sense: DNA at AGT, 2'-fluoro at CU, [invAb] at 5' end, 3' end, backbone not given here; antisense: sugars from the 5' end rrrfffmffmmmfffffmfmm, backbone not given here) [STAT6 siNA duplex; target GUGAAAGCCUGGUGGACAU, site 954] | 71.7 ± 1.8% | 23 ± 8.7 pM | 71.7 ± 1.8% | 71.7 ± 1.8% | 41.6 ± 7.4%
2 | 30008-DC: STAT6 siNA duplex; sense SEQ ID NO: 80, antisense SEQ ID NO: 81; target CUGCUCUGCUCAGAUGUGA, site 2549 (sense CUGCUCUGCUCAGAUGUGATT; antisense UCACAUCUGAGCAGAGCAGUU; sense: DNA at AGT, 2'-fluoro at CU, [invAb] at 5' end, 3' end, backbone not given here; antisense: sugars from the 5' end rrrfmfffmmmfmmmmfmmmm, backbone not given here) [STAT6 siNA duplex; target CUGCUCUGCUCAGAUGUGA, site 2549] | 72.6 ± 4.5% | 21.6 ± 12.4 pM | 72.6 ± 4.5% | 72.6 ± 4.5% | 77.9 ± 7.5%
3 | 29997-DC: STAT6 siNA duplex; sense SEQ ID NO: 58, antisense SEQ ID NO: 59; target CUACCAUGGUGCCUUCUUA, site 2262 (sense CUACCAUGGUGCCUUCUUATT; antisense UAAGAAGGCACCAUGGUAGUU; sense: DNA at AGT, 2'-fluoro at CU, [invAb] at 5' end, 3' end, backbone not given here; antisense: sugars from the 5' end rrrmmmmmfmffmfmmfmmmm, backbone not given here) [STAT6 siNA duplex; target CUACCAUGGUGCCUUCUUA, site 2262] | 68.1 ± 6.2% | 18.1 ± 8.3 pM | 68.1 ± 6.2% | 68.1 ± 6.2% | 28.7 ± 6.1%
